Experimental data: patent publication US9873693B2 (Sunesis Pharmaceuticals, Inc., priority 2006, dated 2018)
Read-outs that look alike come from different tables or passages of the source.

How the values were obtained:
phosphorylated PDK1 = phosphorylated PDK1 (Homo sapiens (Human), UniProt O15530); test: PDK1 kinase assay (coupled PDK1/AKT/FAM-crosstide, IMAP); format: biochemical; conditions: 0.5 nM phosphorylated PDK1, 24 μM ATP; read-out: Inhibition of phospo-PDK1 in vitro IC50
dephosphorylated PDK1 = dephosphorylated PDK1 (Homo sapiens (Human), UniProt O15530); test: as above; format: biochemical; conditions: 25 nM un-phosphorylated PDK1, 24 μM ATP; read-out: Inhibition of dephospo-PDK1 in vitro IC50
Summary of the method: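 Coupled cascade using 25 nM dephosphorylated PDK1 (aa 51–360, lambda-phosphatase treated, MS-verified), 30 nM unphosphorylated GST-AKT2 (aa 140–467)-PIFtide and 100 nM FAM-crosstide in Tris pH 7.2, 10 mM MgCl2, 1 mM DTT. ATP was 24 μM, with 30 min at 25 °C. Product was read by IMAP fluorescence polarization, and ΔmP against concentration was fitted with a 4-parameter model.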

phospho-akt (Thr308) = phospho-akt (Thr308) MSD ELISA in PC-3 cells; format: cell-based; conditions: Homo sapiens, PC-3 cells; for EC50: PC-3, 2 h, 2 hours, no serum; for inhibition at 1 µM / inhibition at 10 µM: read-out: Percent Inhibition of phospho-Akt (308) By MSD ELISA
Summary of the method: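 PC-3 cells plated overnight in 10% FBS medium, then treated with three-fold serial compound dilutions in serum-free medium; DMSO-only wells as high control. Lysates captured on BSA-blocked MSD plates overnight at 4 degrees, detection antibody 1 hr RT, electrochemiluminescence read on MSD reader.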

Phospho-T308 Akt = Phospho-T308 Akt detection using immunoblot (western blot) in PC-3 cells; format: cell-based; conditions: for Reduction of Cellular Levels of Akt p308 By Western: 2 hour incubation, concentration not given in Table 2; for inhibition at 5 µM / inhibition at 2 µM: Homo sapiens, read-out: Percent Inhibition of phospho-Akt (308) By Western
Protocol: A Phospho-T308 Akt detection using immunoblot (western blot) analysis was performed as described below.
PC-3 prostate cells were plated in a 6 well plate in F12K media (Invitrogen, Carlsbad, Calif.) plus 10% FBS (Invitrogen) and placed in incubator overnight. The stock of compound A was a 50 mM solution in DMSO. 1000× dilutions of the compound were made in DMSO. The 1000× dilutions include, 35 mM, 25 mM, 15 mM, 10 mM, 7 mM, 5 mM, and 1 mM. 1 μl of the 1000× dilutions was added to 1 ml F12K media without serum for final concentrations of […]. 1 μl of DMSO was added to 1 ml media with no serum for a control. The 1 ml DMSO or compound plus media was then added to the cells. Following a 2 hour incubation at 37° C., cells were harvested and washed in PBS and subjected to centrifugation at 3,300 rpm for 5 minutes. Cells were lysed in 100 μl of Bio Rad Bioplex buffer containing protease inhibitors (BioRad, Hercules, Calif.) for 30 minutes on ice followed by centrifugation at 13,000 rpm for 5 minutes. The protein content of the supernatant was assayed using DC Protein Assay (BioRad). 25 μl of protein was added to 4× sample buffer (Invitrogen) and sample reducer (Invitrogen) and run on a 4-12% NuPage gel (Invitrogen). Proteins were then transferred to nitrocellulose (Invitrogen). The membrane was blocked in Tris-buffered saline (Sigma, St. Louis, Mo.) plus 0.1% Tween (Sigma) (T-TBS) plus 5% blotting grade milk (BioRad) for 60 minutes. Membranes were then incubated in T-TBS plus 5% BSA (Sigma) plus 1:1000 of anti-phospho akt (Thr 308) (Cell Signaling Technology, Beverly, Mass.) overnight at 4° C. Membranes were washed in T-TBS then incubated in 1:2000 of anti-rabbit-HRP (Cell Signaling) in TTBS plus 5% milk. Membranes were washed again and proteins were visualized with Super Signal West Pico (Pierce, Rockford, Ill.) and using Kodak BioMax MR film (Kodak, Rochester, N.Y.).
Phospho-akt 308 protein bands on the film were quantified using densitometry. An Alpha Imager (Alpha Innotech Corp, San Leandro, Calif.) using AlphaEase FC software version 4.1.0 (Alpha Innotech Corp.) was used to quantitate protein bands. Briefly, a rectangle of equal size was placed around each protein band as well as a background spot on the film. The densitometry values (IDV=Integrated Density Value) obtained for the background spot was then subtracted from the values obtained for the protein bands. These values were used to obtain an EC50 value using non-linear regression analysis in GraphPad Prism Version 4.00 (Graph Pad Prism, San Diego, Calif.). Percent decrease in expression of phosphoh-akt 308 were also measured specifically at 2 μM and 5 μM levels of inhibitor.

[1] = read-out: Reduction of Cellular Levels of Akt p308 By MSD ELISA (EC50 μM)
[2] = read-out: Inhibition of P308 Akt in cells using MSD EC50

phosphorylated PDK1, sequence (O15530 51-360): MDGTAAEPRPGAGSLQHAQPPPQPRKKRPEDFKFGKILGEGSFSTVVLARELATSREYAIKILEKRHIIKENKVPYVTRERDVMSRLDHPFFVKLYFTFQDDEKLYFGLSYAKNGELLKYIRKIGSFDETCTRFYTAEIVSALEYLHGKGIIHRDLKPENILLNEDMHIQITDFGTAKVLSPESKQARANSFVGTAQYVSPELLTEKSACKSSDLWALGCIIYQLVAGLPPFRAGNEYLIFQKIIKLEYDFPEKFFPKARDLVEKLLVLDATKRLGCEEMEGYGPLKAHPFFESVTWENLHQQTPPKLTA
dephosphorylated PDK1, sequence (O15530 51-360): as above

| SMILES | IC50 (phosphorylated PDK1) [nM] | IC50 (dephosphorylated PDK1) [nM] | EC50 (phospho-akt (Thr308); [1]) [µM] | Reduction of Cellular Levels of Akt p308 By Western (Phospho-T308 Akt) | inhibition at 5 µM (Phospho-T308 Akt) [%] | EC50 (phospho-akt (Thr308); [2]) [µM] | inhibition at 2 µM (Phospho-T308 Akt) [%] | inhibition at 1 µM (phospho-akt (Thr308)) [%] | inhibition at 10 µM (phospho-akt (Thr308)) [%] |
| --- | --- | --- | --- | --- | --- | --- | --- | --- | --- |
| O=C(NCc1cccc(-c2cn[nH]c2)c1)c1cccn(Cc2ccc(F)c(F)c2)c1=O [Cpd 222] | 500 to 10000 | < 500 | > 5 | bb (inhibition of from 25% to 75%) | 25 to 75 | – | – | – | – |
| O=C(NC1CCCc2ccc(-c3c[nH]c4ncccc34)cc21)c1cccn(Cc2ccc(F)c(F)c2)c1=O (stereo not shown) [Cpd 16] | < 500 | < 500 | > 5 | bb (inhibition of from 25% to 75%) | – | > 5 | < 25 | – | – |
| NC[C@@H](NC(=O)c1cccn(Cc2ccc(F)c(F)c2)c1=O)c1nc(-c2c[nH]c3ncccc23)cs1 [Cpd 296] | < 500 | < 500 | – | bb (inhibition of from 25% to 75%) | 25 to 75 | 1 to 5 | – | < 25 | > 75 |
| C[C@@H](c1ccc(Cl)cc1)n1cccc(C(=O)NCc2noc(-c3c[nH]c4ncccc34)n2)c1=O [Cpd 300] | < 500 | < 500 | – | bbb (inhibition of more than 75%) | > 75 | 1 to 5 | – | 25 to 75 | > 75 |
| COC(=O)c1cc(-c2cccc(CNC(=O)c3cccn(Cc4ccc(F)c(F)c4)c3=O)c2)c[nH]1 [Cpd 230] | < 500 | < 500 | – | b (inhibition of less 25%) | < 25 | – | – | 25 to 75 | > 75 |
| O=C(NCc1noc(-c2c[nH]c3ncccc23)n1)c1cccn(Cc2ccc(Cl)c(F)c2)c1=O [Cpd 304] | < 500 | < 500 | – | bbb (inhibition of more than 75%) | > 75 | 1 to 5 | – | < 25 | > 75 |
| O=C(NCc1cnc(-c2c[nH]c3ncccc23)s1)c1cccn(Cc2ccc(F)c(F)c2)c1=O [Cpd 134] | < 500 | < 500 | – | bbb (inhibition of more than 75%) | > 75 | – | – | < 25 | > 75 |
| O=C(O)C[C@@H](NC(=O)c1cccn(Cc2ccc(F)c(F)c2)c1=O)c1nnc(-c2c[nH]c3ncccc23)o1 [Cpd 287] | < 500 | < 500 | – | bb (inhibition of from 25% to 75%) | 25 to 75 | – | – | < 25 | < 25 |
| O=C(NCc1noc(-c2c[nH]c3ncccc23)n1)c1cccn(Cc2ccc(F)cc2)c1=O [Cpd 303] | < 500 | < 500 | – | bbb (inhibition of more than 75%) | > 75 | – | – | < 25 | < 25 |
| COC(=O)[C@H](COc1ccc2[nH]c(=O)[nH]c2c1)NC(=O)c1cccn(Cc2ccc(F)c(F)c2)c1=O [Cpd 135] | < 500 | < 500 | 1 to 5 | bbb (inhibition of more than 75%) | > 75 | 1 to 5 | – | – | – |
| O=C(NCc1noc(-c2c[nH]c3ncccc23)n1)c1cc(Cl)cn(Cc2cccc(F)c2)c1=O [Cpd 310] | < 500 | < 500 | – | bb (inhibition of from 25% to 75%) | 25 to 75 | 1 to 5 | – | 25 to 75 | 25 to 75 |
| O=C(C[C@@H](NC(=O)c1cccn(Cc2ccc(F)c(F)c2)c1=O)c1nnc(-c2c[nH]c3ncccc23)o1)NCCN1CCCC1 [Cpd 298] | < 500 | < 500 | – | b (inhibition of less 25%) | < 25 | – | – | < 25 | < 25 |
| NC(=O)C[C@@H](NC(=O)c1cccn(Cc2ccc(F)c(F)c2)c1=O)c1ncc(-c2c[nH]c3ncccc23)o1 [Cpd 306] | < 500 | < 500 | – | bbb (inhibition of more than 75%) | > 75 | – | – | < 25 | 25 to 75 |
| O=C(NCc1ccc(-c2c[nH]c3nccnc23)s1)c1cccn(Cc2ccc(F)c(F)c2)c1=O [Cpd 14] | < 500 | < 500 | – | bb (inhibition of from 25% to 75%) | – | – | 25 to 75 | 25 to 75 | 25 to 75 |
| NC[C@@H](NC(=O)c1cccn(Cc2ccc(F)c(F)c2)c1=O)c1nnc(-c2c[nH]c3ncccc23)o1 [Cpd 283] | < 500 | < 500 | 1 to 5 | bb (inhibition of from 25% to 75%) | 25 to 75 | 1 to 5 | – | – | – |
| CC(C)(C)OC(=O)C[C@@H](NC(=O)c1cccn(Cc2ccc(F)c(F)c2)c1=O)c1nnc(-c2c[nH]c3ncccc23)o1 [Cpd 286] | < 500 | < 500 | – | bbb (inhibition of more than 75%) | > 75 | < 1 | – | 25 to 75 | > 75 |
| CN(C)C(=O)C[C@@H](NC(=O)c1cccn(Cc2ccc(F)c(F)c2)c1=O)c1nnc(-c2c[nH]c3ncccc23)o1 [Cpd 290] | 500 to 10000 | < 500 | – | bb (inhibition of from 25% to 75%) | 25 to 75 | – | – | < 25 | 25 to 75 |
